Experimental findings from ChEMBL document CHEMBL1201862, “PubChem BioAssay data set” (2004) are described below.

The structures appear in SMILES notation.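 Compound exposure: 48 hours, 5 concentrations, 96-well plates. The concentration for 50% growth inhibition is given as GI50.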 The source made the active and inactive calls. Rule as the data show it: active = GI50 up to about 1.1 µM and inactive = higher. Where only a bound is given, the exact number is not on record here.

Test systems include OVCAR-3; SNB-75; TK-10; HCC 2998; SK-MEL-2; SW-620; NCI-H522; ACHN; KM-20L2; U-251; HCT-116; NCI-H23; NCI-H460; M14; SR; Malme-3M; SK-MEL-5.
Assay in all cases: NCI-60 cell line screen, 48 h

Consider `COc1ccc2c(CCNC(C)=O)c(C(C)=O)[nH]c2c1`, for which the GI50 in the experiment on OVCAR-3, in the experiment with SNB-75, in the experiment on TK-10, in the experiment with HCC 2998, in the experiment on SK-MEL-2 and with SW-620 was > 100 µM (inactive) each time. Further, the GI50 in the experiment with NCI-H522 is > 100 µM (inactive); in the experiment with ACHN, > 100 µM (inactive); in the experiment on KM-20L2 it was > 100 µM (inactive); in the experiment with U-251 it was > 100 µM (inactive); with HCT-116, > 100 µM (inactive); in the experiment on NCI-H23, > 10 µM (inactive). The GI50 in the experiment with NCI-H460, with M14 and in the experiment on SR was > 100 µM (inactive) in each case.

Consider `COC(=O)NC(=O)c1cn(CCCOC(=O)CCCCCCCCC(=O)OCCCn2cc(C(=O)NC(=O)OC)c(=O)[nH]c2=O)c(=O)[nH]c1=O`, for which the GI50 was > 100 µM (inactive) with OVCAR-3; 22.3 µM (inactive) in the experiment on SNB-75; 36.8 µM (inactive) with TK-10; > 100 µM (inactive) with HCC 2998; > 100 µM (inactive) with SK-MEL-2; > 100 µM (inactive) in the experiment on SW-620. Also, the GI50 in the experiment with ACHN is > 100 µM (inactive); in the experiment on KM-20L2, > 100 µM (inactive); with Malme-3M, > 100 µM (inactive); in the experiment on HCT-116, > 100 µM (inactive); in the experiment with NCI-H23 it was 39.3 µM (inactive); in the experiment on SK-MEL-5, > 100 µM (inactive). Moreover, the GI50 in the experiment with NCI-H460, in the experiment with M14 and in the experiment on SR was > 100 µM (inactive) in each case.

With `COC(=O)C1C(=O)O[C@@H](c2ccc(OC)cc2)C1C(=O)OC` (stereo partly specified), the GI50 in the experiment with OVCAR-3, in the experiment on SNB-75, with TK-10, in the experiment with HCC 2998, in the experiment on SW-620 and with ACHN was > 100 µM (inactive) throughout. The GI50 in the experiment with KM-20L2, with Malme-3M, with U-251, in the experiment with HCT-116, with NCI-H23 and in the experiment with SK-MEL-5 was > 100 µM (inactive) throughout. In addition, the GI50 in the experiment on M14 and in the experiment on SR was > 100 µM (inactive) each time.

`CCN(CC)c1ccc(/N=C2/C=CC(=O)c3ncccc32)c(C)c1`: the GI50 with OVCAR-3 was 3.33 µM (inactive); with SNB-75, 14.8 µM (inactive); with TK-10, 16.3 µM (inactive); with HCC 2998 it was 11.7 µM (inactive); in the experiment with SK-MEL-2, 15.1 µM (inactive); with SW-620 it was 2.53 µM (inactive). Besides, the GI50 in the experiment with ACHN is 3.92 µM (inactive); in the experiment with KM-20L2 it was 13.5 µM (inactive); with Malme-3M, 3.82 µM (inactive); in the experiment with U-251, 6.92 µM (inactive); with HCT-116 it was 2.47 µM (inactive); in the experiment on NCI-H23, 5.94 µM (inactive). Further, the GI50 is 5.53 µM (inactive) in the experiment with SK-MEL-5, 6.43 µM (inactive) with NCI-H460, 3.02 µM (inactive) with M14 and 2.65 µM (inactive) in the experiment with SR.

Regarding `CN(C)CC1CCCC(CN(C)C)C1=NOC(=O)c1ccccc1` (stereo unspecified), the GI50 was > 100 µM (inactive) in the experiment with OVCAR-3; > 56.5 µM (inactive) with SNB-75; > 100 µM (inactive) in the experiment on TK-10; > 100 µM (inactive) with HCC 2998; > 100 µM (inactive) in the experiment with SK-MEL-2; > 100 µM (inactive) in the experiment with SW-620. Moreover, the GI50 in the experiment on NCI-H522, with ACHN, in the experiment with KM-20L2, with Malme-3M, in the experiment on U-251 and in the experiment with HCT-116 was > 100 µM (inactive) each time. The GI50 in the experiment on NCI-H23, in the experiment on SK-MEL-5, with NCI-H460, in the experiment on M14 and in the experiment on SR was > 100 µM (inactive) in each case.

Turning to `CCOC(=O)CCn1cnc(N)n1`, the GI50 in the experiment on OVCAR-3, in the experiment with SNB-75, in the experiment on TK-10, in the experiment with HCC 2998, in the experiment on SK-MEL-2 and with SW-620 was > 100 µM (inactive) in each case. Also, the GI50 in the experiment with NCI-H522, in the experiment with ACHN, with KM-20L2, in the experiment on Malme-3M, in the experiment with U-251 and in the experiment with HCT-116 was > 100 µM (inactive) throughout. Also, the GI50 in the experiment on NCI-H23, in the experiment on SK-MEL-5, in the experiment with NCI-H460, in the experiment with M14 and in the experiment on SR was > 100 µM (inactive) each time.

In the case of `CSc1nc2[nH]c(=O)c(C)nc2c(=O)[nH]1`, the GI50 in the experiment on OVCAR-3, in the experiment on SNB-75, in the experiment with TK-10, in the experiment on HCC 2998, in the experiment on SK-MEL-2 and with SW-620 was > 100 µM (inactive) in each case. In addition, the GI50 in the experiment with NCI-H522, with ACHN, in the experiment with KM-20L2, with Malme-3M, in the experiment on U-251 and in the experiment on HCT-116 was > 100 µM (inactive) in each case. Besides, the GI50 with NCI-H23, in the experiment with SK-MEL-5, with NCI-H460, with M14 and in the experiment with SR was > 100 µM (inactive) throughout.

On to `C/C(CCN(C)C)=N/O`, for which the GI50 in the experiment with OVCAR-3 was 1.29 µM (inactive); in the experiment on SNB-75 it was 16.8 µM (inactive); with TK-10, 7.73 µM (inactive); in the experiment on HCC 2998 it was 1.16 µM (inactive); in the experiment on SK-MEL-2 it was 16.5 µM (inactive); with SW-620 it was 2.71 µM (inactive). Also, the GI50 was 0.918 µM (active) in the experiment with ACHN; 8.47 µM (inactive) with KM-20L2; 6.59 µM (inactive) with U-251; 0.531 µM (active) in the experiment with HCT-116; 8.32 µM (inactive) with NCI-H23; 1.64 µM (inactive) with NCI-H460. For the same molecule, the GI50 in the experiment with M14 was 0.859 µM (active); in the experiment with SR, 0.281 µM (active).

As for `CN(CCN(C)C(=O)CCOS(C)(=O)=O)C(=O)CCOS(C)(=O)=O`, the GI50 in the experiment with OVCAR-3, with SNB-75, in the experiment on TK-10, in the experiment with HCC 2998, in the experiment on SK-MEL-2 and in the experiment on SW-620 was > 100 µM (inactive) each time. Moreover, the GI50 in the experiment on NCI-H522, in the experiment on ACHN, in the experiment with KM-20L2, in the experiment with Malme-3M, in the experiment with U-251 and with HCT-116 was > 100 µM (inactive) each time. Further, the GI50 with NCI-H23 was > 100 µM (inactive); in the experiment on SK-MEL-5, > 100 µM (inactive); with NCI-H460 it was 19.5 µM (inactive); in the experiment on M14, > 100 µM (inactive); in the experiment with SR, 15.6 µM (inactive).

As for `CN(C)CCNC(=O)c1cccc2ccc(-c3ccc(-c4ccccc4)cc3)nc12`, the GI50 with OVCAR-3 was 6.01 µM (inactive); with SNB-75, 2.88 µM (inactive); in the experiment on TK-10, 4.48 µM (inactive); in the experiment with HCC 2998, 1.83 µM (inactive); in the experiment on SK-MEL-2, 18.3 µM (inactive); in the experiment on SW-620, 2.11 µM (inactive). Moreover, the GI50 in the experiment on NCI-H522 is 1.88 µM (inactive); with ACHN, 5.47 µM (inactive); with KM-20L2 it was 1.98 µM (inactive); in the experiment with Malme-3M, 1.97 µM (inactive); with U-251 it was 2.14 µM (inactive); in the experiment on HCT-116 it was 1.72 µM (inactive). Further, the GI50 with NCI-H23 is 5.69 µM (inactive); with SK-MEL-5, 1.72 µM (inactive); with NCI-H460, 1.61 µM (inactive); in the experiment with M14, 1.77 µM (inactive); with SR, 2.3 µM (inactive).

In the case of `O=C(Nc1c(O)[nH]c(=S)[nH]c1=O)c1ccccc1`, the GI50 in the experiment on OVCAR-3, in the experiment with SNB-75, in the experiment with TK-10, with SK-MEL-2, in the experiment with SW-620 and in the experiment on NCI-H522 was > 100 µM (inactive) throughout. Further, the GI50 in the experiment with ACHN, with KM-20L2, with Malme-3M, with U-251, in the experiment with HCT-116 and with NCI-H23 was > 100 µM (inactive) each time. The GI50 in the experiment with SK-MEL-5, in the experiment on NCI-H460, with M14 and with SR was > 100 µM (inactive) each time.

On to `O=C(/C=C/c1ccc(OCCCOc2ccc(/C=C/C(=O)c3ccccc3)cc2)cc1)c1ccccc1`, for which the GI50 was > 100 µM (inactive) in the experiment with OVCAR-3; 33.4 µM (inactive) with SNB-75; > 100 µM (inactive) in the experiment on TK-10; > 100 µM (inactive) in the experiment on HCC 2998; > 100 µM (inactive) in the experiment with SK-MEL-2; > 100 µM (inactive) with SW-620. Moreover, the GI50 was > 100 µM (inactive) with ACHN; > 100 µM (inactive) in the experiment with KM-20L2; > 100 µM (inactive) with Malme-3M; > 10 µM (inactive) in the experiment with U-251; 77.4 µM (inactive) in the experiment with HCT-116; > 100 µM (inactive) with NCI-H23. The GI50 with SK-MEL-5, with NCI-H460, in the experiment on M14 and in the experiment on SR was > 100 µM (inactive) throughout.
